Tests used:
Assay type in all cases: cell-based, human
NS-SV-AC cells [1] = experiment: Semi-quantitative RT-PCR of SS-A/Ro and SS-B/La mRNA; conditions: 100 uM EGCG, different times
Protocol: (§1) Cell treatment: ECCG was dissolved in cell culture media as a 50 mM stock immediately before use. Exponentially growing NS-SV-AC cells were incubated with 100 μM ECCG for various time periods in the growth media described above, and then were either extracted for total RNA or cell lysates prior to RT-PCR or Western blots.
(§2) Total RNA was extracted using an RNeasy total RNA isolation system (QIAGEN, Valentia, Calif.) RT reactions and PCR reactions were performed according to the manufacturer's protocol (Super Array Bioscience Corp). For amplification, the following pair of primers was used,
(§3) Amplification was started by heating for 1.5 min at 94° C., followed by 30 cycles for 52 kD SSA/Ro. 25 cycles for GAPDH and 25 cycles for SSB/La, each cycle consisting of 15
(§4) second at 94° C., 30 seconds at 57.3° C., and 1 min at 72° C. A final extension was performed at 72° C. for 5 min prior to gel analysis.
(§5) To further test this possibility, three cell types, NHEK, NS-SV-AC (an SV40 immortalized cell line derived from human submandibular acinar cells) and OC2 cells (derived from an oral squamous cell carcinoma) were treated with 100 uM EGCG for different times. A semi-quantitative estimate of SS-A/Ro and SS-B/La mRNA levels was then obtained by RT-PCR during the exponential period of amplification. GAPDH was used as a housekeeping gene control.

NHEK [2] = experiment: as above; conditions: 100 uM EGCG, different times
Protocol: as §1, §2, §3, §4, §5

NS-SV-AC cells [3] = experiment: Western analysis of autoantigen protein levels; conditions: 100 uM
Protocol: (§6) Western blot. Cells were washed in ice-cold PBS and lysed for 20 min in RIPA buffer containing 1% (v/v) Nonidet P-40, 0.5% (w/v) sodium deoxycholate, 0.1% (w/v) SDS, 10 μg/ml leupeptin, 3 μg/ml aprotinin and 100 mM phenylmethylsulfonyl fluoride (PMSF). Samples of lysates containing the same amount of protein were loaded in each lane (we used 5-30μg, depending on the antibody used) and electrophoretically separated on a 12% SDS polyacrylamide gel. Following electrophoresis, proteins were transferred to a PVDF membrane (Immobilon™-P, Millipore Corporation, Bedford, Mass.). The membrane was blocked for 1 h with 5% (w/v) non-fat dry milk powder in PBST (0.1% Tween-20 in PBS) and then incubated for 1 h with primary antibody diluted in PBST/milk (Antibodies and dilutions: rabbit polyclonal JNK1/2, […], mouse monoclonal pJNK1/2, 1:1000, rabbit polyclonal ERK, 1:2000, rabbit polyclonal p38, 1:1000, rabbit polyclonal pp 38, 1:1000 and goat polyclonal actin, 1:2000). The membrane was washed three times with PBST and incubated with peroxidase-conjugated, affinity-purified anti-rabbit IgG (Santa Cruz Biotechnology, Inc.) for 1 h. Following extensive washing, the reaction was developed by enhanced chemiluminescent staining using ECL Western blotting detection reagents (Amersham Pharmacia Biotech Inc., Piscataway, N.J.).
(§7) To extend the mRNA data, the protein levels of 6 different autoantigens in NHEK and NS-SV-AC cells were determined by Western analysis following two treatments with 100 uM EGCSG at 24 and 48 hrs.

NHEK [4] = experiment: Western analysis of autoantigen protein levels; conditions: 100 uM
Protocol: as §6, §7

NS-SV-AC cells [5] = experiment: TNF-α-induced cytotoxicity, MTT assay; conditions: dose-dependent; 100 ng/ml TNFα, 24 hr; p<0.05
Protocol: TNF-α cyotoxicity: NS-SV-AC cells (0.5×10<4> cells/well) were seeded in a 96-well microplate and either treated for 24 hr with EGCC as described above (or not treated in the control), in the presence of 100 ng/ml TNFα and 10 μg/ml cyclohexamide. After the treatments, viability was determined by the MTT assay. The cells in each well were washed with 200 μl of phosphate-buffered saline (PBS) and incubated with 100 μl of 2% (w/v) MTT in a solution of 0.05 M Tris-HCl (pH 7.6), 0.5 mM MgCl2, 2.5 mM CoCl2 and 0.25 M disodium succinate at 37° C. for 30 min. Cells were fixed by the addition of 100 μl of 4% (v/v) formalin in 0.2 M Tris-HCl (pH 7.6), and after a 5 min incubation at room temperature liquid was removed and the wells were allowed to dry. Each well was rinsed with 200 μl water and cells were solubilized by the addition of 100 μl of 6.35% (v/v) 0.1 N NaOH in DMSO. The colored formazan product was measured by a Thermo MAX micro plate reader (Molecular Devices Corp. Sunnyvale, Calif.) at a wavelength of 562 nm.
We examined the effects of EGCG on TNF-α-induced cytotoxicity of the human salivary gland acinar cell line NS-SV-AC using the MTT assay.
To examine the role of activation of the p38 signaling pathway in reducing TNF-α-induced cytotoxicity, cells were exposed to TNF-[alpha] and EGCG in the presence of either the p38 MAPK inhibitor SB203580 or the MEK inhibitor PD98059.

NS-SV-AC cells [6] = experiment: Western blot of p38, ERK and JNK phosphorylation
Protocol: as §6
p38 activation is one mechanism by which GTPs attenuates mechanisms of SS pathogenesis. […] Therefore, of these three signaling pathways, EGCG activates primarily p38 in NS-SV-AC cells.

**Q.** With `O=C(O[C@@H]1Cc2c(O)cc(O)cc2O[C@@H]1c1cc(O)c(O)c(O)c1)c1cc(O)c(O)c(O)c1` [EGCG, (−)-epigallocatechin-3-gallate] as the molecule, how does the “SS-B/La mRNA level” value (NS-SV-AC cells [1]) read?
**A.** decreased progressively and substantially

**Q.** What about the “SS-B/La mRNA level” value (NHEK [2]) of the same molecule?
**A.** decreased progressively and substantially

**Q.** And the Golgin-67 protein level (NS-SV-AC cells [3]; 24 hrs)?
**A.** reduced

**Q.** And the PARP protein level (NS-SV-AC cells [3]; 24 hrs)?
**A.** significantly reduced

**Q.** What about the “SS-A/Ro 52 protein level” value (NS-SV-AC cells [3]; 24 hrs) of the same molecule?
**A.** Neither SS-A/Ro 52 nor SS-B/La were significantly reduced

**Q.** And the SS-B/La protein level (NS-SV-AC cells [3]; 24 hrs)?
**A.** Neither SS-A/Ro 52 nor SS-B/La were significantly reduced

**Q.** What about the coilin protein level (NS-SV-AC cells [3]; 24 hrs) of the same molecule?
**A.** significantly reduced

**Q.** What about the Golgin-67 protein level (NS-SV-AC cells [3]; 48 hrs) of the same molecule?
**A.** barely detectable

**Q.** What about the PARP protein level (NS-SV-AC cells [3]; 48 hrs) of the same molecule?
**A.** barely detectable

**Q.** And the “SS-A/Ro 52 protein level” value (NS-SV-AC cells [3]; 48 hrs)?
**A.** considerably reduced

**Q.** And the SS-B/La protein level (NS-SV-AC cells [3]; 48 hrs)?
**A.** considerably reduced

**Q.** And the coilin protein level (NS-SV-AC cells [3]; 48 hrs)?
**A.** barely detectable

**Q.** What about the PARP protein level (NHEK [4]; 24 hrs) of the same molecule?
**A.** significantly reduced

**Q.** And the “SS-A/Ro 52 protein level” value (NHEK [4]; 24 hrs)?
**A.** Neither SS-A/Ro 52 nor SS-B/La were significantly reduced

**Q.** What about the SS-B/La protein level (NHEK [4]; 24 hrs) of the same molecule?
**A.** Neither SS-A/Ro 52 nor SS-B/La were significantly reduced

**Q.** What about the coilin protein level (NHEK [4]; 24 hrs) of the same molecule?
**A.** significantly reduced

**Q.** What about the Golgin-67 protein level (NHEK [4]; 48 hrs) of the same molecule?
**A.** the reduction was not as marked and was only observed at 48 hrs

**Q.** And the PARP protein level (NHEK [4]; 48 hrs)?
**A.** barely detectable

**Q.** And the “SS-A/Ro 52 protein level” value (NHEK [4]; 48 hrs)?
**A.** considerably reduced

**Q.** And the SS-B/La protein level (NHEK [4]; 48 hrs)?
**A.** considerably reduced

**Q.** And the coilin protein level (NHEK [4]; 48 hrs)?
**A.** barely detectable

**Q.** And the “protection from TNFα-induced cytotoxicity” value (NS-SV-AC cells [5])?
**A.** up to 50%

**Q.** What about the pERK (NS-SV-AC cells [6]) of the same molecule?
**A.** only a slight increase

**Q.** What about the “phosphorylation of JNK” value (NS-SV-AC cells [6]) of the same molecule?
**A.** not altered

**Q.** What about the “phosphorylation of p38” value (NS-SV-AC cells [6]) of the same molecule?
**A.** rapid and sustained phosphorylation

**Q.** And the “time to p38 phosphorylation” value (NS-SV-AC cells [6])?
**A.** ≤ 30 min

Reference: patent publication US8287923B2, “Compositions and methods for treating immune disorders” (priority 2005, dated 2012)
